Experimental findings from paper PMC9574867, “Discovery and Characterization of Synthesized and FDA-Approved Inhibitors of Clostridial and Bacillary Collagenases” (Journal of Medicinal Chemistry, 2022) are described below.

This test concerns MDCK II cells challenged with B. cereus AH187 supernatant. It counts as cell-based, canine.

Molecules are shown by their SMILES. “Also recorded” adds a separate entry of the source.

`Cc1ccc2nc(P(=O)(O)O)c(P(=O)(O)O)nc2c1` [Compound 11, (6-Methylquinoxaline-2,3-diyl)bis(phosphonic acid)]: the “TEER of MDCK II cells challenged with supernatant” value (“TEER of MDCK II cells challenged” for short) was “maintained the TEER of MDCK II cells challenged with B. cereus supernatant”.
Regarding `O=P(O)(O)c1nc2ccc(Br)cc2nc1P(=O)(O)O` [Compound 10, (6-Bromoquinoxaline-2,3-diyl)bis(phosphonic acid)], the “TEER of MDCK II cells challenged” value was “retain the TEER of the challenged cells”.
With `O=P(O)(O)c1nc2cc(Cl)c(Cl)cc2nc1P(=O)(O)O` [Compound 13, (6,7-Dichloroquinoxaline-2,3-diyl)bis(phosphonic acid)], the “TEER of MDCK II cells challenged” value was “retain the TEER of the challenged cells; also recorded: maintained the TEER of MDCK II cells challenged with B. cereus supernatant”.
For the compound `O=P(O)(O)c1nc2ccc(-c3ccc(Cl)cc3)cc2nc1P(=O)(O)O` [Compound 15, (6-(4-Chlorophenyl)quinoxaline-2,3-diyl)bis(phosphonic acid)], the “TEER of MDCK II cells challenged” value was “maintained the TEER of MDCK II cells challenged with B. cereus supernatant”.
Regarding `O=P([O-])(O)C(Sc1ccc(Cl)cc1)P(=O)([O-])O.[Na+].[Na+]` [Tiludronate disodium, reference compound], the “TEER of MDCK II cells challenged” value is given as “maintained the TEER of MDCK II cells challenged with B. cereus supernatant”.
